Data published in patent US5110816A, “3-[2-(4-arylpiperazin-1-yl)ethoxy]-p-cymene, the method of preparing and composition thereof” (Institut de Recherches Chimiques et Biologiques Appliquees …, priority 1988, dated 1992).
Structures can show the parent of a compound that is named as a salt.

Tests used:
[1] = Acute toxicity in mice, single oral dose; details: mouse, in vivo, p.o., 14-day observation
Description: The products were administered orally to mice in a single dose. After a 14-day observation period, the mortality was recorded.
The results are expressed in the form of the 50% lethal dose (LD50) in mg.kg^-1.

[2] = target: T1, postsynaptic alpha-adrenergic receptors (Rattus norvegicus, UniProt P43140); experiment: Alpha-blocking activity on isolated rat vas deferens; format: cell-based; details: norepinephrine contraction, -log of product concentration at which norepinephrine concentration must be doubled, read-out: pA2 (converted)
T1 construct: contraction of the isolated vas deferens; from tissue; host or cells: isolated rat vas deferens
T1 sequence (P43140 1-466): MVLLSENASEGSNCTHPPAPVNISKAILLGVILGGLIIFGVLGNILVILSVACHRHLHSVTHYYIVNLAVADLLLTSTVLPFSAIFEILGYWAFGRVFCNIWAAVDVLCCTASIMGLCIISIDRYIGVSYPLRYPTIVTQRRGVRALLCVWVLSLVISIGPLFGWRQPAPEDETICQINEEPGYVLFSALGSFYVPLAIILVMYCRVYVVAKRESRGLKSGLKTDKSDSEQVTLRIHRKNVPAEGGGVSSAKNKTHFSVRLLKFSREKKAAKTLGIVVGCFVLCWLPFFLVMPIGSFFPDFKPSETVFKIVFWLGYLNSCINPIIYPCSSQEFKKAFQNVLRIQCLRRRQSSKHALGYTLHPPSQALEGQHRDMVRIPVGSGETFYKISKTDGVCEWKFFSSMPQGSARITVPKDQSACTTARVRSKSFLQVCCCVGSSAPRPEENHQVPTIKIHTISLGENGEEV
Description: 2. Determination of the Alpha-Blocking Activity on Isolated Rat Vas Deferens
Stimulation of the postsynaptic alpha-adrenergic receptors by norepinephrine causes contraction of the isolated vas deferens. The aim is to find the product concentration in whose presence the norepinephrine concentration must be doubled in order to obtain the same effect as in the absence of said product.
The logarithm of this concentration, with its sign changed, represents the pA2 value of the product.

[3] = test system: toxicity of norepinephrine; experiment: Adrenolytic activity in vivo in rats (protection against norepinephrine lethality); details: for ED50: Rattus norvegicus, oral 30 minutes before i.v. norepinephrine 0.4 mg.kg^-1, dose protecting 50 percent of animals; for protection against the toxicity of norepinephrine (in words): oral
Description: 4. Determination of the Adrenolytic Activity "In Vivo" in Rats
The intravenous injection of norepinephrine (0.4 mg.kg^-1) in wake rats causes the death of 100 percent of the animals. The prior administration of a substance with an alpha-blocking property makes it possible to reduce this toxicity.
The products claimed were administered orally 30 minutes before the intravenous injection of norepinephrine.
These are expressed in the form of the 50% effective dose (ED50), i.e. the dose, in mg.kg^-1, which protects 50 percent of the animals.

arterial pressure = experiment: Norepinephrine-induced arterial hyperpressure in anesthetized rabbits; format: in vivo; details: Oryctolagus cuniculus, iv, norepinephrine i.v., 50% inhibition of increase in arterial pressure, read-out: Arterial pressure ID50
Description: (§1) 5. Activity on Ureteral Hyperpressure in Rabbits
(§2) An increase in the arterial pressure and the ureteral pressure is induced in anesthetized rabbits by an intravenous injection of norepinephrine. These hyperpressures can be inhibited by the prior administration of molecules with alpha-blocking potential.
The efficacy is assessed by the 50% inhibitory dose (ID50), i.e. the dose which inhibits the increases in arterial and ureteral pressures by 50 percent.

ureteral pressure = experiment: Norepinephrine-induced ureteral hyperpressure in anesthetized rabbits; format: in vivo; details: for ratio of ID50 arterial pressure to ID50 ureteral pressure: I.V.; for ED50: Oryctolagus cuniculus, iv, norepinephrine i.v., 50% inhibition of increase in ureteral pressure, read-out: Ureteral pressure ID50
Description: as §1, §2

[4] = Solubility remark in the isolated rat vas deferens test (Table II); format: physicochemical; details: under pA2 in Table II, value N.D.
[5] = test system: postsynaptic alpha-adrenergic receptors; experiment: Alpha-blocking activity on isolated rabbit ureter; format: cell-based; details: norepinephrine contraction halved, printed in Table II with asterisk
Description: 3. Determination of the Alpha-Blocking Activity on Isolated Rabbit Ureter
Stimulation of the postsynaptic alpha-adrenergic receptors by norepinephrine causes contraction of the isolated rabbit ureter.
The aim is to find the product concentration in whose presence the contracting effect of a given norepinephrine concentration is halved by comparison with the contraction induced before the addition of said product.
The logarithm of this concentration, with its sign changed, represents the pD'2 value.

| SMILES | LD50 at 336 h [1] | Kb [2] | ED50 [3] | protection against the toxicity of norepinephrine (in words) [3] | ED50 (arterial pressure) | ratio of ID50 arterial pressure to ID50 ureteral pressure (ureteral pressure) | ED50 (ureteral pressure) | solubility remark [4] | pD'2 [5] |
| --- | --- | --- | --- | --- | --- | --- | --- | --- | --- |
| CCOc1ccccc1N1CCN(CCOc2cc(C)ccc2C(C)C)CC1 [B 1178, 3-[2-(4-o-ethoxyphenylpiperazin-1-yl)ethoxy]-p-cymene dihydrochloride] | > 1000 mg/kg | 72.4 nM | 2 mg/kg | excellent protection against the toxicity of norepinephrine | 3.9 mg/kg | 10.6 | 0.37 mg/kg | – | – |
| Cc1ccc(C(C)C)c(OCCN2CCN(c3ccccc3Cl)CC2)c1 [B 1299, 3-[2-(4-o-chlorophenylpiperazin-1-yl)ethoxy]-p-cymene hydrochloride] | > 1000 mg/kg | 347 nM | 10 mg/kg | excellent protection against the toxicity of norepinephrine | – | – | – | – | – |
| COc1ccc(N2CCN(CCOc3cc(C)ccc3C(C)C)CC2)c(OC)c1 [B 1362] | 897 mg/kg | > 1000 nM | 37.3 mg/kg | – | – | – | – | – | – |
| Cc1ccc(C(C)C)c(OCCN2CCN(c3ccc(F)cc3)CC2)c1 [B.1055, 3-[2-(4-p-fluorophenylpiperazin-1-yl)ethoxy]-p-cymene dihydrochloride] | > 1000 mg/kg | 468 nM | > 100 mg/kg | – | – | – | – | – | – |
| Cc1ccc(C(C)C)c(OCCN2CCN(c3ccccc3)CC2)c1 [B.1057, 3-[2-(4-phenylpiperazin-1-yl)ethoxy]-p-cymene dihydrochloride] | > 1000 mg/kg | 398 nM | > 100 mg/kg | – | – | – | – | – | – |
| Cc1ccc(C(C)C)c(OCCN2CCN(c3cccc(C(F)(F)F)c3)CC2)c1 [B.1079, 3-[2-(4-α,α,α-trifluoro-m-tolylpiperazin-1-yl)ethoxy]-p-cymene monohydrochloride] | > 1000 mg/kg | > 1000 nM | > 100 mg/kg | – | – | – | – | – | – |
| CC(=O)c1ccc(N2CCN(CCOc3cc(C)ccc3C(C)C)CC2)cc1 [B.1105, 3-[2-(4-p-acetylphenylpiperazin-1-yl)ethoxy]-p-cymene hydrochloride] | ~540 mg/kg | 537 nM | 200 mg/kg | – | – | – | – | – | – |
| COc1ccc(N2CCN(CCOc3cc(C)ccc3C(C)C)CC2)cc1 [B.1115, 3-[2-(4-p-methoxyphenylpiperazin-1-yl)ethoxy]-p-cymene dihydrochloride] | > 1000 mg/kg | 288 nM | 200 mg/kg | – | – | – | – | – | – |
| Cc1ccc(C(C)C)c(OCCN2CCN(c3ccc(Cl)cc3C)CC2)c1 [B.1152, 3-[2-4-(4-chloro-2-methyl)phenylpiperazine-1-yl)ethoxy]-p-cymene hydrochloride] | > 1000 mg/kg | – | > 100 mg/kg | – | – | – | – | insoluble | – |
| COc1ccccc1N1CCN(CCOc2cc(C)ccc2C(C)C)CC1 [B.1168, 3-[2-(4-o-methoxyphenylpiperazin-1-yl)-ethoxy]-p-cymene dihydrochloride] | > 1000 mg/kg | 195 nM | 3 mg/kg | excellent protection against the toxicity of norepinephrine | – | – | – | – | – |
| Cc1ccc(C(C)C)c(OCCN2CCN(c3ccc(Cl)c(Cl)c3)CC2)c1 [B.1184, 3-[2-4-(3,4-dichloro)phenylpiperazin-1-yl)ethoxy]-p-cymene hydrochloride] | > 1000 mg/kg | – | > 100 mg/kg | – | – | – | – | insoluble | – |
| Cc1ccc(C(C)C)c(OCCN2CCN(c3ccc(Cl)cc3)CC2)c1 [B.1191, 3-[2-(4-p-chlorophenylpiperazin-1-yl)ethoxy]-p-cymene dihydrochloride] | > 1000 mg/kg | 331 nM | > 100 mg/kg | – | – | – | – | – | – |
| CCOc1cccc(N2CCN(CCOc3cc(C)ccc3C(C)C)CC2)c1 [B.1204, 3-[2-(4-m-ethoxyphenylpiperazin-1-yl)ethoxy]-p-cymene hydrochlroide] | > 1000 mg/kg | 1000 nM | 56 mg/kg | – | – | – | – | – | – |
| COc1cccc(N2CCN(CCOc3cc(C)ccc3C(C)C)CC2)c1 [B.1206, 3-[2-(4-m-methoxyphenylpiperazin-1-yl)ethoxy]-p-cymene hydrochloride] | > 1000 mg/kg | 170 nM | 100 mg/kg | – | – | – | – | – | – |
| Cc1ccc(C(C)C)c(OCCN2CCN(c3ccccc3C)CC2)c1 [B.1213, 3-[2-(4-o-methylphenylpiperazin-1-yl)-ethoxy]-p-cymene hydrochloride] | > 1000 mg/kg | 1100 nM | 15 mg/kg | – | – | – | – | – | – |
| Cc1ccc(C(C)C)c(OCCN2CCN(c3cc(Cl)ccc3C)CC2)c1 [B.1256] | > 1000 mg/kg | > 1000 nM | 121 mg/kg | – | – | – | – | – | – |
| Cc1ccc(C(C)C)c(OCCN2CCN(c3ccccc3F)CC2)c1 [B.1261, 3-[2-(4-o-fluorophenylpiperazin-1-yl)ethoxy]-p-cymene hydrochloride] | > 1000 mg/kg | 363 nM | 20 mg/kg | – | – | – | – | – | – |
| Cc1ccc(C(C)C)c(OCCN2CCN(c3c(C)cccc3Cl)CC2)c1 [B.1326] | > 1000 mg/kg | > 1000 nM | > 200 mg/kg | – | – | – | – | – | – |
| Cc1ccc(C(C)C)c(OCCN2CCN(c3ccccc3O)CC2)c1 [B.1338] | > 1000 mg/kg | 40.7 nM | 6.4 mg/kg | – | 19 mg/kg | 11.8 | 1.6 mg/kg | – | – |
| CCCCOc1ccccc1N1CCN(CCOc2cc(C)ccc2C(C)C)CC1 [B.1340] | > 1000 mg/kg | > 1000 nM | 11.3 mg/kg | – | – | – | – | – | – |
| Cc1ccc(C(C)C)c(OCCN2CCN(c3cccc(O)c3)CC2)c1 [B.1343] | > 1000 mg/kg | 832 nM | 142 mg/kg | – | – | – | – | – | – |
| Cc1ccc(N2CCN(CCOc3cc(C)ccc3C(C)C)CC2)c(Cl)c1 [B.1353] | > 1000 mg/kg | > 1000 nM | 30.9 mg/kg | – | – | – | – | – | – |
| CCCCCOc1ccccc1N1CCN(CCOc2cc(C)ccc2C(C)C)CC1 [B.1356] | > 1000 mg/kg | > 1000 nM | 31.1 mg/kg | – | – | – | – | – | – |
| CCCOc1ccccc1N1CCN(CCOc2cc(C)ccc2C(C)C)CC1 [B.1358] | > 1000 mg/kg | > 1000 nM | 2.1 mg/kg | excellent protection against the toxicity of norepinephrine | 5 mg/kg | 4.1 | 1.22 mg/kg | – | – |
| COc1ccc(OC)c(N2CCN(CCOc3cc(C)ccc3C(C)C)CC2)c1 [B.1387] | > 1000 mg/kg | 355 nM | 6.78 mg/kg | excellent protection against the toxicity of norepinephrine | – | – | – | – | – |
| Cc1ccc(C(C)C)c(OCCN2CCN(c3c(C)cccc3C)CC2)c1 [B.1393] | > 1000 mg/kg | > 1000 nM | > 200 mg/kg | – | – | – | – | – | – |
| Cc1ccc(C(C)C)c(OCCN2CCN(c3ccccc3OC(C)C)CC2)c1 [B.1399] | ~500 mg/kg | – | 0.78 mg/kg | excellent protection against the toxicity of norepinephrine | 1.64 mg/kg | 9.1 | 0.18 mg/kg | – | 6.69 |
